Source: patent US20150157633A1, “WNT PROTEIN SIGNALLING INHIBITORS” (The Board of Regents of the University of Texas System, priority 2012, published 2015)
Entries after “also recorded” stand apart in the source; their conditions may differ.

Tests used:
Porcn = target: T1, Porcn (Homo sapiens, UniProt Q9H237); test: Click chemistry labeling of Wnt3A-Fc with alkynyl-PA (Wnt fatty acylation); format: cell-based
T1 construct: endogenous in cells; host or cells: HEK293
T1 sequence (Q9H237 1-461): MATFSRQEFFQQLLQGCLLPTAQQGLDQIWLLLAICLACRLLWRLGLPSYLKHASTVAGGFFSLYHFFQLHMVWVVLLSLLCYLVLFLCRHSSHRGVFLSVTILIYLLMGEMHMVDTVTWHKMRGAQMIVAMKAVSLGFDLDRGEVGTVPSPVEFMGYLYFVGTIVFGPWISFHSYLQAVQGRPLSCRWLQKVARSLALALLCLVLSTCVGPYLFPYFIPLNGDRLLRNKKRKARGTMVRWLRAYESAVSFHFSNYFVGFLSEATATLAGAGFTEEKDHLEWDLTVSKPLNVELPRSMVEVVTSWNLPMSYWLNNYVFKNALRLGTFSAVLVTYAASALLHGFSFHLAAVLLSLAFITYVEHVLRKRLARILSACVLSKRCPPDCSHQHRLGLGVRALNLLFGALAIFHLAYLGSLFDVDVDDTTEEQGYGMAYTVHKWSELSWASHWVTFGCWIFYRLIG
Protocol: Click chemistry. HEK293 cells transiently transfected with the Wnt3A-Fc DNA expression construct were treated with C16 ω-alkynyl fatty acid (see Reagents; 100 μM final concentration) for six hours as previously described (9) in the presence or DMSO or various IWP compounds. C16 ω-alkynyl fatty acid-labeled Wnt3A-Fc protein isolated from cell lysate using Protein A sepharose was then subjected to a copper catalyzed alkyne-azide cycloaddition with biotin-azide with protein immobilized on the sepharose. The biotinylated Wnt protein run on SDS PAGE was detected using HRP conjugated streptavidin.

HHAT = HHAT (Homo sapiens, UniProt Q5VTY9); test: Click chemistry labeling of Hh protein with alkynyl-PA (Hh fatty acylation); format: cell-based
Wnt1-GFP = test: Organotypic embryonic kidney culture from Wnt1-GFP mice; format: cell-based
Protocol: Organotypic kidney culture. E11.5 urogenital systems were removed and bisected in sterile phosphate buffered saline (PBS) and then the individual halves were cultured in […] of media at the air-media interface on 24-well tissue culture treated, 6.5 mm diameter, […] pore size Transwell filters (Corning, catalog no. 3422). The media (DMEM with 10% fetal bovine serum (FBS) and Pen/Strep) was supplemented with either DMSO or IWP2 and replaced with fresh media every 12, 24, or 48 hours. All treatments were repeated at least three times with a minimum of six individual kidneys from six distinct embryos each time.

Wnt-GL fusion proteins = test: Wnt-Gaussia luciferase secretion assay in HEK293 cells; format: cell-based; conditions: HEK293 cells expressing one of several Wnt-GL proteins
Protocol: (§1) Luciferase reporter assays. Wnt-Gaussia luciferase secretion and SuperTopFlash assays were conducted as described using a Dual Luciferase kit (Promega) (Chen et al., 2009).

Wnt5A = test: Wnt5A-dependent antagonism of Wnt/β-catenin signaling, STF reporter in HEK293 cells; format: cell-based; conditions: Wnt3A-containing conditioned medium
Protocol: as §1

Jnk = test: Wnt7B-induced Jnk phosphorylation in L fibroblasts; format: cell-based, Mouse; conditions: L fibroblasts transfected with Wnt7B DNA
Dv12 = Dv12 phosphorylation in HeLa cells (Western blot); format: cell-based; conditions: cell-autonomous Wnt signaling
[1] = test system: general protein secretion; conditions: previously demonstrated (Chen et al., 2009); cited from earlier work
Hh = conditions: previously demonstrated (Chen et al., 2009); cited from earlier work
Notch = conditions: previously demonstrated (Chen et al., 2009); cited from earlier work
Wnt/β-catenin pathway [2] = test: Wnt-responsive EGFP reporter in transgenic zebrafish embryos (7XTCF-siam:EGFP); format: in vivo; conditions: for Wnt signaling activity (EGFP reporter): embryos treated from 4 hpf for 20 hours, compound in medium
fin regrowth = test: Resumption of caudal fin regrowth after removal of compound; format: in vivo, zebrafish; conditions: resected caudal fins, water containing IWR-1 for 7 d, then removal
From the text: Achieving transient repression of pathological Wnt response without incurring permanent damage to normal stem cell function is a key anticancer therapeutic goal.

Axin2 = Axin2 expression in DLD-1 cells; format: cell-based; conditions: exposure for 2 h
From the text: Aberrant transcriptional induction of Wnt/β-catenin target genes is typically observed in CRC cells that harbor loss-of-function mutations in the APC tumor suppressor.

Wnt/β-catenin pathway [3] = test: Wnt reporter GFP in cultured zebrafish primary embryonic fibroblasts; format: cell-based; conditions: fibroblasts from 6 hpf embryos, GFP visualized 20 hrs later
From the text: Zebrafish embryonic cell cultures were initiated from embryos at the shield stage (6 hpf). The embryos were dissociated in trypsin/EDTA solution with gentle homogenization and pipetting. After centrifugation, the collected cells were resuspended in F12/L15/DMEM medium and placed into a 24-well tissue culture plate.

tailfin regeneration = test: Caudal fin regeneration assay in zebrafish larvae; format: in vivo; conditions: larvae resected at 3 days post fertilization, IWP12 50 μM, 4 days
[4] = test system: Wnt-planar cell polarity (Wnt/PCP) signaling; test: Convergence and extension gastrulation movements, whole mount in situ hybridization; format: in vivo, zebrafish; conditions: embryos treated starting 4 hpf
Engrailed (eng1a) = test: eng1a expression at the midbrain/hindbrain boundary, in situ hybridization; format: in vivo, zebrafish; conditions: embryos (4 hpf) treated for 20 hours

Sequence of HHAT (Q5VTY9 whole entry, species assumed): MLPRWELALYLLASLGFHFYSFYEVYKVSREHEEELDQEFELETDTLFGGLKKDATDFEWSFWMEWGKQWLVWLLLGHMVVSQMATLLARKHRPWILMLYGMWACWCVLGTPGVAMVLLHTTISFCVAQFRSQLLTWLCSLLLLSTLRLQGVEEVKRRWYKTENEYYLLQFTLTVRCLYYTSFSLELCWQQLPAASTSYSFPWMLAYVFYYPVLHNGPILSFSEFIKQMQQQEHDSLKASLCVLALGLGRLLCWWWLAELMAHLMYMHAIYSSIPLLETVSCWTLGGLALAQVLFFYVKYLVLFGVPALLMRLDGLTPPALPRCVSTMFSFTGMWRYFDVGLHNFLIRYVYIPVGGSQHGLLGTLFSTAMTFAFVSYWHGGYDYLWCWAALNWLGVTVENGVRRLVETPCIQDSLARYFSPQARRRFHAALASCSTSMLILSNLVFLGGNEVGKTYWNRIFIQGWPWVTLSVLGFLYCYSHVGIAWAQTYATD

Structure (SMILES): Cc1ccc2nc(NC(=O)CSc3nc4c(c(=O)n3-c3ccccc3)SCC4)sc2c1 [IWP2]
- Wnt protein acylation (Porcn): disrupts Wnt protein acylation
- fatty acylation of Hh mediated by Hhat (HHAT): does not block fatty acylation
- tubule induction (Wnt1-GFP; E11.5 embryonic kidney culture, Wnt/β-catenin-dependent process): disrupt tubule induction
- accumulation of Wnt1 on the cell surface (Wnt1-GFP; E11.5 embryonic kidney, treated in vitro for 24 hours): block the accumulation of Wnt1 on the cell surface
- accumulation of Wnt proteins in the cell culture medium (Wnt-GL fusion proteins): abrogated the accumulation of Wnt proteins in the cell culture medium
- production of non-canonical Wnt (Wnt5A) (Wnt5A): inhibits the production of a non-canonical Wnt (Wnt5A)
- activation (phosphorylation) of Jnk (Jnk): disrupted
- Dv12 phosphorylation (Dv12): inhibits Dv12 phosphorylation
- general protein secretion [1]: does not block
- cellular responses mediated by Hh (Hh): does not block
- cellular responses mediated by Notch (Notch): does not block

Structure (SMILES): O=C(Nc1cccc2cccnc12)c1ccc(N2C(=O)[C@@H]3[C@H](C2=O)[C@@H]2C=C[C@H]3C2)cc1 [IWR1]
- Wnt signaling activity (EGFP reporter) (Wnt/β-catenin pathway [2]): Dose-dependent effects
- fin tissue regeneration after chemical removal (fin regrowth): able to regenerate tissue to nearly normal levels after chemical removal
- expression of Axin2 (Axin2): a decrease in the expression of Axin2

Structure (SMILES): Cc1ccc2nc(NC(=O)CSc3nc4c(c(=O)n3C)SC(C)C4)sc2c1 (stereo not drawn) [IWP12]
- excess of IWP12 equivalent in activity to IWR1 (Wnt/β-catenin pathway [2]; EGFP reporter fluorescence, posterior region): approximately 10 fold
- Wnt signaling activity (EGFP reporter) (Wnt/β-catenin pathway [2]): loss of Wnt signaling activity; also recorded: Dose-dependent effects
- posterior body morphogenesis (Wnt/β-catenin pathway [2]; zebrafish embryos): severe effect on posterior body morphogenesis
- Wnt/β-catenin pathway response (GFP) (Wnt/β-catenin pathway [3]): loss of Wnt/β-catenin pathway responses
- tailfin regeneration following resection (tailfin regeneration): block juvenile fish tailfin regeneration
- convergence and extension gastrulation movements [4]: block convergence and extension gastrulation movements
- expression of MHB marker Engrailed (eng1a) (Engrailed (eng1a)): decreased expression of the MHB marker Engrailed (eng1a)
